Measurements taken from ChEMBL document CHEMBL1129061, “Inhibition of human glutathione reductase by 10-arylisoalloxazines: crystalline, kinetic, and electrochemical studies” (J Med Chem, 1996).

Molecular target: T1, Glutathione reductase, mitochondrial (Homo sapiens, UniProt P00390)
T1 sequence (P00390 whole entry): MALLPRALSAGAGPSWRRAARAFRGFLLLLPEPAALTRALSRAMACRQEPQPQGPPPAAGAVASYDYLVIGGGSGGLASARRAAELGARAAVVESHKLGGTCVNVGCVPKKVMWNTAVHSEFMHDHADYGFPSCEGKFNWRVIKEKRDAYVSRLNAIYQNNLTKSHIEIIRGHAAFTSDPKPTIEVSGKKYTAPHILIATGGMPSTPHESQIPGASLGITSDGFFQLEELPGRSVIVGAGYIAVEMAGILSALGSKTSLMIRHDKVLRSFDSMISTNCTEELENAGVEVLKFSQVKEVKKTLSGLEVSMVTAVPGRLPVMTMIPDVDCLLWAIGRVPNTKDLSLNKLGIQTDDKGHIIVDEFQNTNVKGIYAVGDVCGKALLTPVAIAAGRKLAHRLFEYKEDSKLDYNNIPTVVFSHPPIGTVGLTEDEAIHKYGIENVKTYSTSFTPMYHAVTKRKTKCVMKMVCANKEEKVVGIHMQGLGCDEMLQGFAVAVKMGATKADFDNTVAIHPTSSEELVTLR
Test: Inhibitory activity against human glutathione reductase in presence of 100 uM GSSG

Row | Compound | IC50 [µM]
1 | Cn1c(=O)nc2n(-c3cccc(C(F)(F)F)c3)c3ccccc3nc-2c1=O | 1
2 | Cn1c(=O)nc2n(-c3cc[n+](C)cc3)c3ccccc3nc-2c1=O | 40
3 | O=C(O)Cn1c(=O)nc2n(-c3cc(C(F)(F)F)cc(C(F)(F)F)c3)c3ccccc3nc-2c1=O | 25
4 | Cn1c(=O)nc2n(-c3ccncc3)c3ccccc3nc-2c1=O | 3
5 | CCOC(=O)Cn1c(=O)nc2n(-c3cc(C(F)(F)F)cc(C(F)(F)F)c3)c3ccccc3nc-2c1=O | 100
6 | CCOC(=O)Cn1c(=O)nc2n(-c3cccc(C(F)(F)F)c3)c3ccccc3nc-2c1=O | 8
7 | Cn1c(=O)nc2n(-c3cccc4cc5ccccc5cc34)c3ccccc3nc-2c1=O | 4
8 | Cn1c(=O)nc2n(-c3ccc(Cl)cc3)c3cc(N=[N+]=[N-])ccc3nc-2c1=O | 2.5
9 | Cn1c(=O)nc2n(-c3ccc(Cl)cc3)c3cc(F)ccc3nc-2c1=O | 1
10 | O=c1nc2n(-c3ccc(Cl)cc3)c3ccccc3nc-2c(=O)[nH]1 | < 1
11 | O=c1nc2n(-c3cccc(C(F)(F)F)c3)c3ccccc3nc-2c(=O)[nH]1 | 1
12 | Cn1c(=O)nc2n(-c3cc(C(F)(F)F)cc(C(F)(F)F)c3)c3ccccc3nc-2c1=O | 5
13 | CCOC(=O)Cn1c(=O)nc2n(-c3cc(Cl)cc(Cl)c3)c3ccccc3nc-2c1=O | 7
14 | CCOC(=O)Cn1c(=O)nc2n(-c3ccc(Cl)cc3)c3ccccc3nc-2c1=O | 18
15 | Cn1c(=O)nc2n(-c3c(F)c(F)c(F)c(F)c3F)c3ccccc3nc-2c1=O | < 1

Other lines, results leading:

Row | IC50 [µM] | Compound
16 | < 1 | O=c1nc2n(-c3cc(Cl)cc(Cl)c3)c3ccccc3nc-2c(=O)[nH]1
17 | 2 | Cn1c(=O)nc2n(-c3cccc4ccccc34)c3ccccc3nc-2c1=O
18 | < 1 | Cn1c(=O)nc2n(-c3cc(Cl)cc(Cl)c3)c3ccccc3nc-2c1=O
19 | 12 | O=C(O)Cn1c(=O)nc2n(-c3ccc(Cl)cc3)c3ccccc3nc-2c1=O
20 | 3.5 | O=c1nc2n(-c3c(F)c(F)c(F)c(F)c3F)c3ccccc3nc-2c(=O)[nH]1
21 | 2 | Cn1c(=O)nc2n(-c3ccccc3)c3ccccc3nc-2c1=O
22 | 3.5 | O=c1nc2n(-c3cc(C(F)(F)F)cc(C(F)(F)F)c3)c3ccccc3nc-2c(=O)[nH]1
23 | 8 | Cn1c(=O)nc2n(-c3cccnc3)c3ccccc3nc-2c1=O
24 | < 1 | Cn1c(=O)nc2n(-c3ccc(Cl)cc3)c3ccccc3nc-2c1=O
25 | 20 | O=C(O)Cn1c(=O)nc2n(-c3cccc(C(F)(F)F)c3)c3ccccc3nc-2c1=O
26 | 14 | O=C(O)Cn1c(=O)nc2n(-c3cc(Cl)cc(Cl)c3)c3ccccc3nc-2c1=O
